From patent US20250345370A1, “MICROBIAL LIBERATION OF N-METHYLSEROTONIN FROM ORANGE FIBER” (Washington University, priority 2022, published 2025)

Legend:
[1] = N-methylserotonin in drinking water of germ-free mice: body weight, epididymal fat, intake, survival; assay type: in vivo, germ-free C57BL/6J mice; details: for epididymal fat mass: vs untreated controls
Description: For experiments involving administration of N-methylserotonin to germ-free mice, a stock solution of the compound (100 mg/mL, Santa Cruz Biotechnologies) was prepared in sterile water and filter sterilized ([…]; Nalgene). The outer surface of tubes containing the stock solution was sterilized with Clidox (Pharmacal) and the tubes were introduced into gnotobiotic isolators using standard procedures. The stock solution was then diluted in darkened glass water bottles (Ancare) in order to administer doses of 1 mg/kg/day or 50 mg/kg/day (based on an experimentally determined average consumption of 5 mL of water/day/mouse). Every four days, bottles were replaced with new ones containing fresh N-methylserotonin. Each of the three arms of the experiment, including the control arm where unsupplemented drinking water was administered, consisted of 5 mice.
Fecal samples and body weights were collected weekly, while food and water intake were monitored daily by comparing pellet mass in the food hopper and the volume of water in water bottles at the beginning and end of a 24 h period and dividing these values by the number of mice per cage. All animals were euthanized between 0830 h and 0930 h without prior fasting. Luminal contents from the proximal and distal halves of the small intestine, the cecum and the colon, host tissues (liver, epididymal fat pads, gastrocnemius muscle, the distal quarter of the small intestine (ileum), cecum and entire colon) plus serum were collected, flash frozen in liquid nitrogen and stored at −80° C. prior to analyses.
Host effects of N-methylserotonin. To characterize the effects of N-methylserotonin on host physiology and metabolism, 12-week-old germ-free C57BL/6J mice were fed the unsupplemented HiSF-LoFV diet and administered N-methylserotonin via their drinking water at doses of 1 mg/kg/day or 50 mg/kg/day for 21 days (FIG. 2A). The 1 mg/kg/day dose was experimentally determined to result in fecal N-methylserotonin levels that were equivalent to those documented in mice colonized with the 14-member community consuming the orange fiber-supplemented HiSF-LoFV diet (133.5±15 ng/g versus 131±19 ng/g feces, respectively; p=0.92, unpaired t-test). The 50 mg/kg/d dose was equivalent to the estimated total amount of N-methylserotonin consumed each day in the 10% orange fiber-containing diet (based on the yield obtained after in vitro enzymatic digestion of the fiber with T. reesei cellulase).

colon gene expression = experiment: RNA-Seq of colonic tissue of germ-free mice treated with 50 mg/kg/d N-methylserotonin; assay type: in vivo, germ-free C57BL/6J mice; details: for log2 fold-change: colon
5-HT2A receptor = target: T1, 5-HT2A receptor (Rattus norvegicus, UniProt P14842); details: cultured rat muscle, agonist activity on the 5-HT2A receptor; cited from earlier work
T1 construct: increase glucose uptake in cultured rat muscle via its agonist activity on the 5-HT2A receptor; host or cells: cultured rat muscle
T1 sequence (P14842 whole entry): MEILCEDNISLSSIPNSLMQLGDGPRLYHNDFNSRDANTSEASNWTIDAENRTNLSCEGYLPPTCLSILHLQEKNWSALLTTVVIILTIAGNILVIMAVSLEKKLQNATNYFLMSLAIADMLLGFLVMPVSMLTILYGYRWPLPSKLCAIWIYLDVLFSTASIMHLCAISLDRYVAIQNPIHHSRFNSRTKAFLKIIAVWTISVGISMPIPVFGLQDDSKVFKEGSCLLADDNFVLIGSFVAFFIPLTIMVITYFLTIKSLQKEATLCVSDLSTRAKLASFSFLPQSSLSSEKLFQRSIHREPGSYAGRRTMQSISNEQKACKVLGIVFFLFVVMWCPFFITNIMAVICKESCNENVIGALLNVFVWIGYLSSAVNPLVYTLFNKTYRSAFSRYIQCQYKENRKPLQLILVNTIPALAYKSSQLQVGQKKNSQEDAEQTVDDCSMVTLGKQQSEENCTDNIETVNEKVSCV

CNCCc1c[nH]c2ccc(O)cc12 [N-methylserotonin]
epididymal fat mass ([1]; 1 mg/kg/day (lower dose)): not the lower dose | epididymal fat mass ([1]; 50 mg/kg/day (higher dose)): statistically significant reduction | mortality ([1]; 50 mg/kg/day group, 5 mice): one animal died within the first week | weight gain ([1]; drinking water, 21 days, vs untreated): statistically significant decrease in weight gain | food and water intake ([1]; measured daily, all three groups): remained consistent | colonic expression of known (Htr7, Htr2A) or related (Htr3, Htr4, Htr5 and Htr6) receptors (colon gene expression; 50 mg/kg/d vs untreated): did not reveal any statistically significant effects | number of genes with statistically significant differences in expression in colonic tissue (colon gene expression; 50 mg/kg/d vs untreated, FDR-adjusted p<0.05): Seven hundred and forty-eight | log2 fold-change (colon gene expression; gene 6430548M08Rik): 0.47 | log2 fold-change (colon gene expression; gene Aass): 4.35 | log2 fold-change (colon gene expression; gene Adgrg6): 1.06 | log2 fold-change (colon gene expression; gene Adgrl1): 0.82 | log2 fold-change (colon gene expression; gene Aldh1l2): 1.36 | log2 fold-change (colon gene expression; gene Ankrd35): 1.27 | log2 fold-change (colon gene expression; gene Anxa9): 3.41 | log2 fold-change (colon gene expression; gene Arhgef17): 0.43 | log2 fold-change (colon gene expression; gene Atf5): 0.70 | log2 fold-change (colon gene expression; gene Atp6v1c2): 5.46 | log2 fold-change (colon gene expression; gene Azgp1): 3.05 | log2 fold-change (colon gene expression; gene Baiap2): 0.55 | log2 fold-change (colon gene expression; gene Bcl9l): 0.57 | log2 fold-change (colon gene expression; gene Bhlha15): 2.54 | log2 fold-change (colon gene expression; gene C1s2): 6.81 | log2 fold-change (colon gene expression; gene Cabp1): 2.18 | log2 fold-change (colon gene expression; gene Cbx6): 0.65 | log2 fold-change (colon gene expression; gene Cecr2): 1.23 | log2 fold-change (colon gene expression; gene Cirbp): 0.65 | log2 fold-change (colon gene expression; gene Clca4a): 0.41 | log2 fold-change (colon gene expression; gene Col18a1): 0.40 | log2 fold-change (colon gene expression; gene Crybg2): 0.56 | log2 fold-change (colon gene expression; gene Dbp): 1.14 | log2 fold-change (colon gene expression; gene Derl3): 3.02 | log2 fold-change (colon gene expression; gene Dixdc1): 0.49 | log2 fold-change (colon gene expression; gene Dkkl1): 4.99 | log2 fold-change (colon gene expression; gene Dnase2b): 6.74 | log2 fold-change (colon gene expression; gene Doxl2): 0.01 | log2 fold-change (colon gene expression; gene Epop): 1.75 | log2 fold-change (colon gene expression; gene Fam214a): 0.49 | log2 fold-change (colon gene expression; gene Fbf1): 0.51 | log2 fold-change (colon gene expression; gene Fgl1): 3.75 | log2 fold-change (colon gene expression; gene Gdf7): 2.66 | log2 fold-change (colon gene expression; gene Gdf10): 0.91 | log2 fold-change (colon gene expression; gene Gm973): 1.71 | log2 fold-change (colon gene expression; gene Gprc5c): 2.14 | log2 fold-change (colon gene expression; gene Gsdma): 3.93 | log2 fold-change (colon gene expression; gene Gspt2): 1.14 | log2 fold-change (colon gene expression; gene Hdac7): 0.63 | log2 fold-change (colon gene expression; gene Hoxd9): 1.18 | log2 fold-change (colon gene expression; gene Igfbp5): 0.78 | log2 fold-change (colon gene expression; gene Impdh1): 0.53 | log2 fold-change (colon gene expression; gene Islr): 0.52 | log2 fold-change (colon gene expression; gene Itpripl2): 0.42 | log2 fold-change (colon gene expression; gene Jag2): 0.92 | log2 fold-change (colon gene expression; gene Kdm6b): 0.57 | log2 fold-change (colon gene expression; gene Krt14): 2.57 | log2 fold-change (colon gene expression; gene Lamc1): 0.37 | log2 fold-change (colon gene expression; gene Lrrc75b): 2.59 | log2 fold-change (colon gene expression; gene Man2a2): 0.35 | log2 fold-change (colon gene expression; gene Masp1): 1.38 | log2 fold-change (colon gene expression; gene Mns1): 1.12 | log2 fold-change (colon gene expression; gene Mtss2): 0.61 | log2 fold-change (colon gene expression; gene Mxra8): 0.45 | log2 fold-change (colon gene expression; gene Nkx3-1): 0.01 | log2 fold-change (colon gene expression; gene Npr1): 0.99 | log2 fold-change (colon gene expression; gene Nr1d1): 0.81 | log2 fold-change (colon gene expression; gene Nucb2): 3.53 | log2 fold-change (colon gene expression; gene Pacsin3): 0.87 | log2 fold-change (colon gene expression; gene Panct2): 1.72 | log2 fold-change (colon gene expression; gene Pate4): 7.55 | log2 fold-change (colon gene expression; gene Pate9): 0.01 | log2 fold-change (colon gene expression; gene Pate14): 6.47 | log2 fold-change (colon gene expression; gene Per2): 0.67 | log2 fold-change (colon gene expression; gene Pgm5): 0.29 | log2 fold-change (colon gene expression; gene Pik3ip1): 1.04 | log2 fold-change (colon gene expression; gene Pitpnm3): 0.67 | log2 fold-change (colon gene expression; gene Plau): 0.93 | log2 fold-change (colon gene expression; gene Pou3f3): 1.18 | log2 fold-change (colon gene expression; gene Prrc2a): 0.49 | log2 fold-change (colon gene expression; gene Ptges): 1.14 | log2 fold-change (colon gene expression; gene Rapgef3): 0.54 | log2 fold-change (colon gene expression; gene Rbms3): 0.45 | log2 fold-change (colon gene expression; gene Rcn1): 2.72 | log2 fold-change (colon gene expression; gene Rec8): 1.38 | log2 fold-change (colon gene expression; gene Rgs7bp): 0.57 | log2 fold-change (colon gene expression; gene Rhobtb3): 0.86 | log2 fold-change (colon gene expression; gene Serpine2): 2.50 | log2 fold-change (colon gene expression; gene Serpinf1): 0.82 | log2 fold-change (colon gene expression; gene Shroom1): 2.33 | log2 fold-change (colon gene expression; gene Slc4a8): 1.04 | log2 fold-change (colon gene expression; gene Slc23a1): 1.80 | log2 fold-change (colon gene expression; gene Sp8): 2.57 | log2 fold-change (colon gene expression; gene Spinkl): 7.58 | log2 fold-change (colon gene expression; gene Spock2): 0.54 | log2 fold-change (colon gene expression; gene Sptb): 0.85 | log2 fold-change (colon gene expression; gene Stard5): 0.43 | log2 fold-change (colon gene expression; gene Sva): 6.86 | log2 fold-change (colon gene expression; gene Syvn1): 0.58 | log2 fold-change (colon gene expression; gene Tgfbr3): 0.43 | log2 fold-change (colon gene expression; gene Tgm4): 9.55 | log2 fold-change (colon gene expression; gene Tmem44): 0.56 | log2 fold-change (colon gene expression; gene Tns1): 0.44 | log2 fold-change (colon gene expression; gene Uox): 2.40 | log2 fold-change (colon gene expression; gene Upk1b): 2.61 | log2 fold-change (colon gene expression; gene Vat1): 0.64 | log2 fold-change (colon gene expression; gene Vwa1): 0.64 | log2 fold-change (colon gene expression; gene Zbtb4): 0.37 | log2 fold-change (colon gene expression; gene Zbtb16): 1.21 | log2 fold-change (colon gene expression; gene Zfhx3): 0.54 | glucose uptake (5-HT2A receptor): able to increase glucose uptake
